Test results from PMC4631615 (Bipolar disorders, 2015).
“And” between values parts separate entries of the source, which are not always exact repeats. Identical values can stand only once. Marks after values point to notes of the source that are not given here.

Legend:
[1] = tested on: patients with bipolar disorder; settings: Phase IIb; cited from earlier work
acyl-CoA synthetase 4 = settings: cited from earlier work
NMRI mice = settings: injected on GD 8 with 3 mmol/kg; cited from earlier work
SWV mouse fetuses [2] = settings: mouse, in vivo
pregnant SWV mice [3] = assay: Maternal body weight and weight gain, teratogenicity study; format: in vivo, mouse; settings: mean ± SD
various animal models = settings: cited from earlier work
SWV mouse fetuses [4] = assay: Skeletal examination of fetuses; format: in vivo
[5] = tested on: histone deacetylase (HDAC); settings: cited from earlier work
pregnant SWV mice [6] = assay: Pregnancy outcomes; format: in vivo, mouse; settings: for Dead fetuses/litter / Fetus weight / Implantations/litter / Live fetuses/litter / Resorptions/litter: mean ± SD
mouse = settings: source not given; cited from earlier work
[7] = 1/3.28 of LD50 (VCD 304.6 mg/kg) p.o. GD 4–17
[8] = 1/4.36 of LD50 (RIS 14.5, VCD 229.2 mg/kg) p.o. GD 4–17
[9] = 1/6.54 of LD50 (RIS 9.6, OLA 32.1, VCD 152.8 mg/kg) p.o. GD 4–17

For `CCC(C)C(CC)C(N)=O` (stereo not drawn) [VCD, 2-ethyl-3-methylpentamide], the “Tolerated daily dose with minimal side effects” value [1] is listed as 1500 mg, the “Ki, uncompetitive inhibition of acylation of arachidonic acid” value (acyl-CoA synthetase 4) is listed as 6.38 mM and the Embryotoxicity (NMRI mice) is listed as “did not induce any embryotoxicity”. The “Cleft palate, affected fetuses” value (SWV mouse fetuses [2]; female, SWV) was 0, the “Dilated renal pelvis, affected litters” value (SWV mouse fetuses [2]; female, SWV) was 2/2 and the “Exencephaly, affected fetuses” value (SWV mouse fetuses [2]; female, SWV) was 0. For the same compound, the “Malposition stomach, affected litters” value (SWV mouse fetuses [2]; female, SWV) was 1/1, the “Right aortic arch, affected litters” value (SWV mouse fetuses [2]; female, SWV) was 1/1 ^b and the “Overall teratogenicity under the experimental conditions” value (SWV mouse fetuses [2]; po) was “did not show any teratogenic effect”. For the same compound, the “Dams net weight gain” value (pregnant SWV mice [3]; [7]) was 8.6 ± 1.8 grams, the “Dams weight GD 18” value (pregnant SWV mice [3]; [7]) was 48.2 ± 2.9 grams and the Dams weight gain (pregnant SWV mice [3]; [7]) was 20.5 ± 3.5 grams. For the same compound, the “Dams net weight gain” value (pregnant SWV mice [3]; [8]) was 7.8 ± 2.1 grams, the “Dams weight GD 18” value (pregnant SWV mice [3]; [8]) was 47.3 ± 4.2 grams and the Dams weight gain (pregnant SWV mice [3]; [8]) was 20.1 ± 2.9 grams. For the same compound, the “Dams net weight gain” value (pregnant SWV mice [3]; [9]) was 7.9 ± 2.1 grams, the “Dams weight GD 18” value (pregnant SWV mice [3]; [9]) was 48.5 ± 3.4 grams and the Dams weight gain (pregnant SWV mice [3]; [9]) was 20.2 ± 3.0 grams. The “Anticonvulsant potency relative to VPA” value (various animal models) was 3–10 times, the “All vertebra: incomplete ossification, affected fetuses” value (“All vertebra: incomplete ossification” below) (SWV mouse fetuses [4]; [7]) was 0 and the “Cervical vertebra: ossified fusion of centrums, affected fetuses” value (“Cervical vertebra … affected fetuses” for short) (SWV mouse fetuses [4]; [7]) was 1/1. The “Cervical vertebra: ossified fusion of centrums, affected litters” value (SWV mouse fetuses [4]; [7]) was 1/1, the “Fetuses with skeletal abnormalities, %” value (SWV mouse fetuses [4]; [7]) was 8.6% and the “Fibula: bent, affected fetuses” value (SWV mouse fetuses [4]; [7]) was 0. The “Metacarpal: absent ossification, affected fetuses” value (SWV mouse fetuses [4]; [7]) was 1/1, the “Metacarpal: absent ossification, affected litters” value (SWV mouse fetuses [4]; [7]) was 1/1 and the “Metacarpal: incomplete ossification, affected fetuses” value (“Metacarpal: incomplete ossification” for short) (SWV mouse fetuses [4]; [7]) was 0. For the same compound, the “Metatarsal: absent ossification, affected fetuses” value (SWV mouse fetuses [4]; [7]) was 1/1, the “Metatarsal: absent ossification, affected litters” value (SWV mouse fetuses [4]; [7]) was 1/1 and the “Metatarsal: incomplete ossification, affected fetuses” value (“Metatarsal: incomplete ossification” below) (SWV mouse fetuses [4]; [7]) was 0. For the same compound, the “Ribs: absent 13th, affected fetuses” value (SWV mouse fetuses [4]; [7]) was 0, the “Ribs: branched, affected fetuses” value (SWV mouse fetuses [4]; [7]) was 0 and the “Skull: incomplete ossification, affected fetuses” value (SWV mouse fetuses [4]; [7]) was 0. The “Skull: interparietal incomplete ossification, affected fetuses” value (SWV mouse fetuses [4]; [7]) was 1/1, the “Skull: interparietal incomplete ossification, affected litters” value (SWV mouse fetuses [4]; [7]) was 1/1 and the “Skull: parietal incomplete ossification, affected fetuses” value (shortened to “Skull: parietal incomplete ossification”) (SWV mouse fetuses [4]; [7]) was 0. The “Skull: supraoccipital incomplete ossification, affected fetuses” value (SWV mouse fetuses [4]; [7]) was 0, the “Sternebra: absent ossification, affected fetuses” value (SWV mouse fetuses [4]; [7]) was 1/1 and the “Sternebra: absent ossification, affected litters” value (SWV mouse fetuses [4]; [7]) was 1/1. The “Sternebra: incomplete ossification, affected fetuses” value (SWV mouse fetuses [4]; [7]) was 1/1, the “Sternebra: incomplete ossification, affected litters” value (SWV mouse fetuses [4]; [7]) was 1/1 and the “Sternebra: misaligned, affected fetuses” value (SWV mouse fetuses [4]; [7]) was 0. The “Sternebra: misshapen, affected fetuses” value (SWV mouse fetuses [4]; [7]) was 3, the “Sternebra: misshapen, affected litters” value (SWV mouse fetuses [4]; [7]) was 2 and the “Whole skeletal system: incomplete ossification, affected fetuses” value (SWV mouse fetuses [4]; [7]) was 0. The “All vertebra: incomplete ossification” value (SWV mouse fetuses [4]; [8]) was 0, the “Cervical vertebra … affected fetuses” value (SWV mouse fetuses [4]; [8]) was 0 and the “Fibula: bent, affected fetuses” value (SWV mouse fetuses [4]; [8]) was 1/1. The “Fibula: bent, affected litters” value (SWV mouse fetuses [4]; [8]) was 1/1, the “Metacarpal: absent ossification, affected fetuses” value (SWV mouse fetuses [4]; [8]) was 0 and the “Metacarpal: incomplete ossification” value (SWV mouse fetuses [4]; [8]) was 0. The “Metatarsal: absent ossification, affected fetuses” value (SWV mouse fetuses [4]; [8]) was 0, the “Metatarsal: incomplete ossification” value (SWV mouse fetuses [4]; [8]) was 0 and the “Ribs: absent 13th, affected fetuses” value (SWV mouse fetuses [4]; [8]) was 3/3. The “Ribs: absent 13th, affected litters” value (SWV mouse fetuses [4]; [8]) was 3/3, the “Ribs: branched, affected fetuses” value (SWV mouse fetuses [4]; [8]) was 1/1 and the “Ribs: branched, affected litters” value (SWV mouse fetuses [4]; [8]) was 1/1. The “Skull: incomplete ossification, affected fetuses” value (SWV mouse fetuses [4]; [8]) was 1/1, the “Skull: incomplete ossification, affected litters” value (SWV mouse fetuses [4]; [8]) was 1/1 and the “Skull: interparietal incomplete ossification, affected fetuses” value (SWV mouse fetuses [4]; [8]) was 0. For the same compound, the “Skull: parietal incomplete ossification” value (SWV mouse fetuses [4]; [8]) was 0, the “Skull: supraoccipital incomplete ossification, affected fetuses” value (SWV mouse fetuses [4]; [8]) was 0 and the “Sternebra: absent ossification, affected fetuses” value (SWV mouse fetuses [4]; [8]) was 0. For the same compound, the “Sternebra: incomplete ossification, affected fetuses” value (SWV mouse fetuses [4]; [8]) was 3, the “Sternebra: incomplete ossification, affected litters” value (SWV mouse fetuses [4]; [8]) was 2 and the “Sternebra: misaligned, affected fetuses” value (SWV mouse fetuses [4]; [8]) was 0. The “Sternebra: misshapen, affected fetuses” value (SWV mouse fetuses [4]; [8]) was 6, the “Sternebra: misshapen, affected litters” value (SWV mouse fetuses [4]; [8]) was 4 and the “All vertebra: incomplete ossification” value (SWV mouse fetuses [4]; [9]) was 0. For the same compound, the “Cervical vertebra … affected fetuses” value (SWV mouse fetuses [4]; [9]) was 0, the “Fibula: bent, affected fetuses” value (SWV mouse fetuses [4]; [9]) was 0 and the “Metacarpal: absent ossification, affected fetuses” value (SWV mouse fetuses [4]; [9]) was 0. For the same compound, the “Metacarpal: incomplete ossification” value (SWV mouse fetuses [4]; [9]) was 0, the “Metatarsal: absent ossification, affected fetuses” value (SWV mouse fetuses [4]; [9]) was 0 and the “Metatarsal: incomplete ossification” value (SWV mouse fetuses [4]; [9]) was 0. For the same compound, the “Ribs: absent 13th, affected fetuses” value (SWV mouse fetuses [4]; [9]) was 3, the “Ribs: absent 13th, affected litters” value (SWV mouse fetuses [4]; [9]) was 1 and the “Ribs: branched, affected fetuses” value (SWV mouse fetuses [4]; [9]) was 1/1. For the same compound, the “Ribs: branched, affected litters” value (SWV mouse fetuses [4]; [9]) was 1/1, the “Skull: incomplete ossification, affected fetuses” value (SWV mouse fetuses [4]; [9]) was 6 and the “Skull: incomplete ossification, affected litters” value (SWV mouse fetuses [4]; [9]) was 2. The “Skull: interparietal incomplete ossification, affected fetuses” value (SWV mouse fetuses [4]; [9]) was 1/1, the “Skull: interparietal incomplete ossification, affected litters” value (SWV mouse fetuses [4]; [9]) was 1/1 and the “Skull: parietal incomplete ossification” value (SWV mouse fetuses [4]; [9]) was 0. The “Skull: supraoccipital incomplete ossification, affected fetuses” value (SWV mouse fetuses [4]; [9]) was 1/1, the “Skull: supraoccipital incomplete ossification, affected litters” value (SWV mouse fetuses [4]; [9]) was 1/1 and the “Sternebra: absent ossification, affected fetuses” value (SWV mouse fetuses [4]; [9]) was 2/2. For the same compound, the “Sternebra: absent ossification, affected litters” value (SWV mouse fetuses [4]; [9]) was 2/2, the “Sternebra: incomplete ossification, affected fetuses” value (SWV mouse fetuses [4]; [9]) was 0 and the “Sternebra: misaligned, affected fetuses” value (SWV mouse fetuses [4]; [9]) was 1/1. The “Sternebra: misaligned, affected litters” value (SWV mouse fetuses [4]; [9]) was 1/1, the “Sternebra: misshapen, affected fetuses” value (SWV mouse fetuses [4]; [9]) was 0 and the “Fetuses with skeletal abnormalities, %” value (SWV mouse fetuses [4]; mouse, in vivo) was 10.4% and 11.1%. The “Whole skeletal system: incomplete ossification, affected fetuses” value (SWV mouse fetuses [4]; mouse, in vivo) was 0, the “Inhibition of HDACs” value [5] was “does not inhibit” and the “Fetuses sex ratio F/M” value (pregnant SWV mice [6]; [7]) was 57/73. It also gave a Dead fetuses/litter (pregnant SWV mice [6]; [7]) of 0.1 ± 0.2, a Fetus weight (pregnant SWV mice [6]; [7]) of 0.91 ± 0.06 g and an Implantations/litter (pregnant SWV mice [6]; [7]) of 14.5 ± 1.7. The Live fetuses/litter (pregnant SWV mice [6]; [7]) was 13.2 ± 2.8, the Resorptions/litter (pregnant SWV mice [6]; [7]) was 1.2 ± 1.4 and the “Fetuses sex ratio F/M” value (pregnant SWV mice [6]; [8]) was 58/77. The Dead fetuses/litter (pregnant SWV mice [6]; [8]) was 0.1 ± 0.3, the Fetus weight (pregnant SWV mice [6]; [8]) was 0.90 ± 0.07 g and the Implantations/litter (pregnant SWV mice [6]; [8]) was 14.8 ± 1.6. The Live fetuses/litter (pregnant SWV mice [6]; [8]) was 13.7 ± 2.0, the Resorptions/litter (pregnant SWV mice [6]; [8]) was 0.9 ± 0.8 and the “Fetuses sex ratio F/M” value (pregnant SWV mice [6]; [9]) was 71/73. It also gave a Dead fetuses/litter (pregnant SWV mice [6]; [9]) of 0.2 ± 0.4, a Fetus weight (pregnant SWV mice [6]; [9]) of 0.91 ± 0.07 g and an Implantations/litter (pregnant SWV mice [6]; [9]) of 14.9 ± 1.7. For the same compound, the Live fetuses/litter (pregnant SWV mice [6]; [9]) was 13.8 ± 2.1, the Resorptions/litter (pregnant SWV mice [6]; [9]) was 1.0 ± 0.9 and the “LD50 mouse, oral” value (mouse) was 999 mg/kg.
